Measured values taken from patent publication US10517842B2, “Methods of modulating miRNA levels and compositions for use in the same” (Los Angeles Biomedical Research Institute at Harbor-UCLA …, priority 2017, dated 2019).

How the values were obtained:
Assay type in all cases: cell-based, human
3′UTR fragment of IL8 = assay: 3′UTR luciferase reporter assay in LSMC; conditions: Tranilast 200 μM vs DMSO
Description: FIG. 10A: The relative luciferase activity in LSMC treated with Tranilast (200 μM) or DMSO as control for 48 hrs prior to transfection with Renilla and Firefly luciferase reporter plasmids carrying a 3′UTR fragment of COL3A1, CDK2 or IL8 and incubated with Tranilast (200 μM) or DMSO containing medium after transfection for another 48 hrs. The relative luciferase activity is presented as the ratio of Firefly:Renilla as compared to DMSO which was independently set as 1. The results are presented as mean±SEM of at least three sets of independent experiments using LSMC isolated from 3 patients. FIG. 10B: Protein expression of COL3A1 and CDK2 was determined after transfection of anti-miR scrambled oligonucleotides (aNC) or anti-miR-29c oligonucleotides (a29c) in LSMC for 72 hrs with DMSO or Tranilast (200 μM) treatment for the last 48 hrs. GAPDH was used as loading control. The result is one representative of at least three sets of independent experiments using LSMC isolated from 3 patients. FIG. 10C: The bar graph presented the relative band densities as mean±SEM of at least three independent experiments. Inhibition of protein expression by Tranilast treatment was calculated relative to changes in corresponding DMSO controls in cells transfected with aNC or anti-miR-29c.

[1] = system: leiomyoma smooth muscle cells (LSMC); assay: Cell proliferation assay (MTT); conditions: Tranilast 100 to 400 μM, 48 hrs, dose-dependent, p<0.05
Source text: Leiomyomas and matched myometrium (N=12) were collected from patients scheduled to undergo hysterectomy at Harbor-UCLA Medical Center with prior approval from Institutional Review Board (#036247). The tissues were either snap frozen and stored in liquid nitrogen for further analysis, or used for isolation of LSMC as previously described (Chuang et al., “miR-200c is aberrantly expressed in leiomyomas in an ethnic-dependent manner and targets ZEBs, VEGFA, TIMP2, and FBLN5,” Endocrine-related cancer (2012)19:541-56; Chuang et al., “miR-93/106b and their host gene, MCM7, are differentially expressed in leiomyomas and functionally target F3 and IL-8. Molecular endocrinology,” (2012) 26:1028-42). Briefly, LSMC were cultured in DMEM supplemented with 10% fetal bovine serum until reaching confluence with a change of media every 2-3 days. […]
LSMC were seeded at 1000 cells/well in 96-well plates and cultured for 48 hrs. […] The rate of cell proliferation was determined using the MTT assay and cells were photographed as previously described (Chuang & Khorram, “Mechanisms underlying aberrant expression of miR-29c in uterine leiomyoma,” Fertility and sterility (2016)105:236-45.e1; Chuang et al., “The Regulatory Function of miR-200c on Inflammatory and Cell-Cycle Associated Genes in SK-LMS-1, A Leiomyosarcoma Cell Line,” Reproductive sciences (2015) 22:563-71). […]

TGF-β3 = assay: Quantitative RT-PCR, mRNA expression in LSMC; conditions: Tranilast 200 μM vs DMSO, 12 h to 48 h, P<0.05
Description: (§1) Total RNA was extracted from LSMC using RNAzol (GeneCopoeia, Rockville, Md.) and their quantity and quality was determined (ND-1000 Spectrophotometer, NanoDrop Technologies, Wilmington, Del.) as previously described (Chuang & Khorram, “miR-200c Regulates IL8 Expression by Targeting IKBKB: A Potential Mediator of Inflammation in Leiomyoma Pathogenesis,” PloS one (2014) 9:e95370). For medium miRNA extraction, 5 pg of synthetic miR-1 from Caenorhabditis elegans (cel-miR-1) was added as a spike-in control for purification efficiency. Subsequently, 2 μg or 10 ng (for miRNA) was reverse transcribed using random primers for CCND1, CDK2, COL1A1, COL3A1, TGF-β3, DNMT1 and EZH2 or specific primers for miR-29c and miR-200c according to the manufacturer's guidelines (Applied Biosystems, Carlsbad, Calif.). Quantitative RT-PCR was carried out using SYBR gene expression master mix or TaqMan miRNA expression assays (Applied Biosystems). Reactions were incubated for 10 min at 95° C. followed by 40 cycles for 15 seconds at 95° C. and 1 min at 60° C. The level of mRNAs and expression of cellular and secreted miRNA was determined using the Invitrogen StepOne System with 18S, RNU6B and cel-miR-1 used for normalization respectively. All reactions were run in triplicate and relative expression was analyzed with the comparative cycle threshold method (2^−ΔΔCT) according to the manufacturer (Applied Biosystems). Values were expressed as fold change compared to the control group.

DNMT1 = assay: Quantitative RT-PCR, mRNA expression in LSMC; conditions: Tranilast 200 μM vs DMSO, 12 h to 48 h, P<0.05
Description: as §1

EZH2 = assay: Quantitative RT-PCR, mRNA expression in LSMC; conditions: Tranilast 200 μM vs DMSO, 12 h to 48 h, P<0.05
Description: as §1

CCND1 = assay: Quantitative RT-PCR, mRNA expression in LSMC; conditions: Tranilast 200 μM vs DMSO, 12 h to 48 h, P<0.05
Description: as §1

COL1 = assay: Quantitative RT-PCR, mRNA expression in LSMC; conditions: Tranilast 200 μM vs DMSO, 12 h to 48 h, P<0.05
Description: as §1

COL3A1 = assay: Quantitative RT-PCR, mRNA expression in LSMC; conditions: Tranilast 200 μM vs DMSO, 12 h to 48 h, P<0.05
Description: as §1

CDK2 = assay: Quantitative RT-PCR, mRNA expression in LSMC; conditions: Tranilast 200 μM vs DMSO, 12 h to 48 h, P<0.05
Description: as §1

expression of IL8 (heading to FIG. 10A, 3′UTR reporter) (3′UTR fragment of IL8): Down-regulated
Compound: COc1ccc(C=CC(=O)Nc2ccccc2C(=O)O)cc1OC [Tranilast, 2-[[3-(3,4-dimethoxyphenyl)-1-oxo-2-propenyl]amino]benzoic acid]
rate of LSMC cell proliferation [1]: significantly inhibited | TGF-β3 expression, mRNA level (TGF-β3): significantly inhibited | DNMT1 expression, mRNA level (DNMT1): significantly inhibited | EZH2 expression, mRNA level (EZH2): significantly inhibited | CCND1 expression, mRNA level (CCND1): significantly inhibited | COL1 expression, mRNA level (COL1): significantly inhibited | COL3A1 expression, mRNA level (COL3A1): significantly inhibited | CDK2 expression, mRNA level (CDK2): significantly inhibited
